These results are taken from ChEMBL document CHEMBL1131729, “Isolation and synthesis of a novel immunosuppressive 17alpha-substituted dammarane from the flour of the Palmyrah palm (Borassus flabellifer)” (Bioorg Med Chem Lett, 1999).

In brackets after ≈: the same amount, converted by molar mass.

Assay [1] deals with Mus musculus. Briefly: Compound was tested […] for immunosuppressive activity in the serum free mixed lymphocyte reaction. The assay is classed as functional.
The subject of assay [2] is Mus musculus. Briefly: In vivo immunosuppressive activity in the delayed type hypersensitivity model induced by SRBC-TH cells in mouse after peroral administration. The class given is functional. The note with it: po.

Usually IC50 stands for the concentration at which inhibition is half-maximal. By ED50 is commonly meant the dose that gives a 50% effect, or the effect in half of the subjects. Higher therefore signals a need for a large dose. In the assay on Mus musculus [1], `C=C(C/C=C/C(C)(C)O)[C@H]1CC[C@]2(C)[C@@H]1CC[C@@H]1[C@@]3(C)CC[C@H](O)C(C)(C)[C@@H]3CC[C@]12C` returned an IC50 of 0.8 µg/mL (≈ 1.81 µM). This compound registered a median effective dose (ED50) with Mus musculus [2] of 10 mg/kg.

The compound `C=C(C/C=C/C(C)(C)O)[C@@H]1CC[C@]2(C)[C@@H]1CC[C@@H]1[C@@]3(C)CC[C@H](O)C(C)(C)[C@@H]3CC[C@]12C` registered an IC50 with Mus musculus [1] of 0.01 µg/mL (≈ 0.0226 µM). Also, in the assay with Mus musculus [2], the ED50 was 0.04 mg/kg.
